Measurements published in US5039684A, “Tetrazole amide derivatives of heterocyclic alkenyl acid and their use as antiallergic substances” (Valeas S. p. A., priority 1989, dated 1991).
Counter-ions that a name gives are not always drawn.

Columns and labels:
[1] = tested on: passive cutaneous anaphylaxis; test: PCA test on the rat, intravenous administration just before challenge with antigen; format: in vivo, rat (male Sprague Dawley); settings: for inhibition in vivo at 1 mg/kg / inhibition in vivo at 3 mg/kg / inhibition in vivo at 10 mg/kg / ED50 / inhibition in vivo at 0.3 mg/kg: Rattus norvegicus, iv; for inhibition in vivo at 1 mg/kg / inhibition in vivo at 0.3 mg/kg: read-out: inhibition (%); for ED50: read-out: ED50 (conf. lim) P = 0.05
Experimental: (§1) The serum, obtained from rats actively sensitized with ovalbumin (antigen) and suitably diluted, was injected intradermically into the shaven back of male Sprague Dawley rats (2 wheals per rat).
(§2) The rats were treated intravenously after 24 hours with a solution of ovalbumin and Evans blue. Thirty minutes later they were killed and the diameter and intensity of the blue ring formed at the site of the intradermic injection were measured.
(§3) For each treated group (5 per group) the % inhibition was then calculated with respect to the control group.
The pharmacological screening was effected by administering the compounds of the present invention intravenously and orally.
(§4) For intravenous administration (2 ml/kg), those compounds in which R1 =H (see formula I) were dissolved in an aqueous 1% NaHCO3 solution whereas for oral administration (4 ml/Kg) they were either suspended in 0.5% carboxymethylcellulose or dissolved in an aqueous 3% NaHCO3 solution.

[2] = tested on: passive cutaneous anaphylaxis; test: PCA test on the rat, oral administration before challenge with antigen; format: in vivo, rat (male Sprague Dawley); settings: for inhibition in vivo at 3 mg/kg / inhibition in vivo at 10 mg/kg / inhibition in vivo at 30 mg/kg / inhibition in vivo at 0.3 mg/kg / inhibition in vivo at 1 mg/kg / ED50: Rattus norvegicus, po; for inhibition in vivo at 3 mg/kg / inhibition in vivo at 10 mg/kg / inhibition in vivo at 30 mg/kg / inhibition in vivo at 0.3 mg/kg / inhibition in vivo at 1 mg/kg / ED50 / inhibition (%): 5 minutes before challenge; for inhibition in vivo at 3 mg/kg / inhibition in vivo at 10 mg/kg / inhibition in vivo at 30 mg/kg: read-out: inhibition (%); for ED50: 5 min, Table 2, oral administration, read-out: ED50 (conf. lim) P = 0.05; for ED50 OS/ED50 iv: oral 5 minutes before challenge / i.v. immediately before challenge; for inhibition (%): oral
Experimental: The serum, obtained from rats actively sensitized with ovalbumin (antigen) and suitably diluted, was injected intradermically into the shaven back of male Sprague Dawley rats (2 wheals per rat). The rats were treated intravenously after 24 hours with a solution of ovalbumin and Evans blue. Thirty minutes later they were killed and the diameter and intensity of the blue ring formed at the site of the intradermic injection were measured. […] The pharmacological screening was effected by administering the compounds of the present invention intravenously and orally. For intravenous administration (2 ml/kg), those compounds in which R1 =H (see formula I) were dissolved in an aqueous 1% NaHCO3 solution whereas for oral administration (4 ml/Kg) they were either suspended in 0.5% carboxymethylcellulose or dissolved in an aqueous 3% NaHCO3 solution.

[3] = tested on: passive cutaneous anaphylaxis; test: PCA test on the rat, time response curve after oral administration; format: in vivo, rat (male Sprague Dawley); settings: Rattus norvegicus, oral; for inhibition in vivo at 30 mg/kg: 30 mg/kg/os, read-out: inhibition %; for inhibition in vivo at 1 mg/kg: 1 mg/kg/os; for inhibition in vivo at 10 mg/kg: 10 mg/kg/os; for inhibition in vivo at 3 mg/kg: 3 mg/kg/os
Experimental: as §1, §2, §3, §4

[4] = Acute toxicity in the mouse, oral administration; format: in vivo; settings: mouse, in vivo, po, 1000 mg/kg, oral, 1000 mg/kg/os; read-out: mortality (%EAD)
Experimental: (§5) Acute toxicity was evaluated in the mouse by administering the compounds orally at scalar doses to a maximum of 1000 mg/kg to evaluate the 50% lethal dose (LD50). The compounds were administered in carboxymethylcellulose (0.5%) in a volume of […] to male mice (Swiss stock) of average weight 20 g.

[5] = tested on: mouse; test: Acute toxicity in the mouse, oral administration; format: in vivo
Experimental: as §5

[6] = 1 mg/kg, immediately before challenge
[7] = 3 mg/kg, immediately before challenge
[8] = 10 mg/kg, immediately before challenge
[9] = 5 min, 5 minutes before challenge
[10] = 0.25 h, 15 minutes before challenge
[11] = 0.5 h, 30 minutes before challenge
[12] = 1 h, 60 minutes before challenge
[13] = 2 h, 120 minutes before challenge

| Compound | inhibition in vivo at 1 mg/kg [1, 6] | inhibition in vivo at 3 mg/kg [1, 7] | inhibition in vivo at 10 mg/kg [1, 8] | ED50 ([1]; immediately before challenge) | inhibition in vivo at 3 mg/kg ([2]; 3 mg/kg) | inhibition in vivo at 10 mg/kg ([2]; 10 mg/kg) | inhibition in vivo at 30 mg/kg ([2]; 30 mg/kg) | inhibition in vivo at 30 mg/kg [3, 9] | inhibition in vivo at 30 mg/kg [3, 10] | inhibition in vivo at 30 mg/kg [3, 11] | inhibition in vivo at 30 mg/kg [3, 12] | inhibition in vivo at 30 mg/kg [3, 13] | mortality [4] | No. (dead) ([5]; oral, 1000 mg/kg/os, 8 treated) | inhibition in vivo at 0.3 mg/kg [2] | inhibition in vivo at 1 mg/kg [2] | ED50 [2] | ED50 OS/ED50 iv [2] | No. (dead) ([5]; mouse, in vivo, po, 1000 mg/kg) | inhibition in vivo at 0.3 mg/kg ([1]; immediately before challenge) | also measured |
| --- | --- | --- | --- | --- | --- | --- | --- | --- | --- | --- | --- | --- | --- | --- | --- | --- | --- | --- | --- | --- | --- |
| O=C(/C=C/c1ccc[nH]1)Nc1nn[nH]n1 [VAL 47-078, N-1H-tetrazol-5-yl-[3-(2-pyrrole)]-acrylamide trans isomer] | 11.2% | 41.3% | 78.6% | 3.85 mg/kg | 7.4% | 35.8% | 38.3% | 31.4% | 29.3% | 9% | 4.3% | 0.5% | 0% | 0 | – | – | – | – | – | – | – |
| Cc1ccc(/C=C/C(=O)Nc2nn[nH]n2)o1 [VAL 47-073, N-1H-tetrazol-5-yl-[3-[5-methyl-(2-furyl)]]-acrylamide trans isomer] | 3.4% | 50.7% | 95.1% | 3.13 mg/kg | 87.5% | 89.3% | – | – | – | – | – | – | 0% | – | 22% | 44% | 0.92 mg/kg | 0.29 | 0 | – | inhibition in vivo at 1 mg/kg [3, 9]: 52.6%; inhibition in vivo at 1 mg/kg [3, 10]: 7.8%; inhibition in vivo at 1 mg/kg [3, 11]: 19.8%; inhibition in vivo at 1 mg/kg [3, 12]: 0%; inhibition in vivo at 1 mg/kg [3, 13]: 0%; toxicity (in words) ([5]; oral, mouse): do not determine any toxic effect |
| O=C(/C=C/c1ccsc1)Nc1nn[nH]n1 [VAL 47-034, N-1H-tetrazol-5-yl-[3-(3-thienyl)]-acrylamide trans isomer] | 1.3% | 48.6% | 63.5% | 4.74 mg/kg | 0% | 0% | 53.4% | 64.5% | 36% | 41.9% | 6.9% | 0% | 25% | 2 | – | – | – | – | – | – | – |
| O=C(/C=C/c1ccccn1)Nc1nn[nH]n1 [VAL 47-055, N-1H-tetrazol-5-yl-[3-(2-pyridyl)]-acrylamide trans isomer] | 47.5% | 85.9% | – | 1.54 mg/kg | 28.3% | 52.9% | 81% | – | – | – | – | – | 0% | – | – | 22.5% | 7.94 mg/kg | 5.15 | 0 | 5.6% | inhibition in vivo at 10 mg/kg [3, 9]: 45.6%; inhibition in vivo at 10 mg/kg [3, 10]: 0.5%; inhibition in vivo at 10 mg/kg [3, 11]: 0%; inhibition in vivo at 10 mg/kg [3, 12]: 4.7%; inhibition in vivo at 10 mg/kg [3, 13]: 0% |
| O=C(/C=C/c1c[nH]c2ccccc12)Nc1nn[nH]n1 [VAL 47-022, N-1H-tetrazol-5-yl-[3-(3-indolyl)]-acrylamide trans isomer] | 43.4% | 97.1% | – | 1.01 mg/kg | 17.8% | 46.6% | 40.8% | 62.2% | 52.7% | 33.3% | 19.4% | 8.9% | 0% | 0 | – | – | – | – | – | 3.9% | – |
| Cc1ccc(/C=C\C(=O)Nc2nn[nH]n2)s1 [VAL 47-005cis, N-1H-tetrazol-5-yl-[3-[5-methyl-(2-thienyl)]]acrylamide cis isomer] | 54.6% | 82.9% | – | 0.89 mg/kg | 94.5% | – | – | – | – | – | – | – | 0% | – | 23.6% | 51.1% | 0.78 mg/kg | 0.88 | 0 | 18% | activity greater than its trans isomer (VAL 47-005) ([1]; i.v., ratio of ED50): about 3 times; inhibition in vivo at 1 mg/kg [3, 9]: 52.4%; inhibition in vivo at 1 mg/kg [3, 10]: 27.5%; inhibition in vivo at 1 mg/kg [3, 11]: 20.6%; inhibition in vivo at 1 mg/kg [3, 12]: 19.6%; inhibition in vivo at 1 mg/kg [3, 13]: 2.1%; toxicity (in words) ([5]; oral, mouse): do not determine any toxic effect |
| Cc1ccc(/C=C/C(=O)Nc2nn[nH]n2)s1 [VAL 47-005Na, N-1H-tetrazol-5-yl-[3-[5-methyl-(2-thienyl)]] acrylamide sodium salt trans isomer] | – | – | – | – | – | – | – | – | – | – | – | – | – | 0 | – | – | – | – | – | – | inhibition (%) ([1]; i.v., 1 mg/kg, immediately before challenge): 16.5%; inhibition (%) ([1]; i.v., 3 mg/kg, immediately before challenge): 40.7%; inhibition (%) ([1]; i.v., 10 mg/kg, immediately before challenge): 78.0%; ED50 (conf. lim) P = 0.05 ([1]; i.v., immediately before challenge): 3.74 (2.89-4.85) mg/kg/iv; inhibition (%) ([2]; 3 mg/kg): 26.7%; inhibition (%) ([2]; 10 mg/kg): 54.7%; inhibition (%) ([2]; 30 mg/kg): 65.8%; mortality (%EAD) ([5]; oral, 1000 mg/kg/os): 0% |
| Cc1ccc(/C=C\C(=O)Nc2nn[nH]n2)o1 [VAL 47-073cis, N-1H-tetrazol-5-yl-[3-[5-methyl-(2-furyl)]]-acrylamide cis isomer] | 6.6% | 25% | 69.4% | 5.76 mg/kg | 67.2% | – | – | – | – | – | – | – | 12.5% | – | 25.1% | 42.6% | 1.26 mg/kg | 0.22 | 1 | – | inhibition in vivo at 3 mg/kg [3, 9]: 50.8%; inhibition in vivo at 3 mg/kg [3, 10]: 66.4%; inhibition in vivo at 3 mg/kg [3, 11]: 17.3%; inhibition in vivo at 3 mg/kg [3, 12]: 5.8%; inhibition in vivo at 3 mg/kg [3, 13]: 0% |
| O=C(/C=C/c1ccncc1)Nc1nn[nH]n1 [VAL 47-042, N-1H-tetrazol-5-yl-[3-(4-pyridyl)]-acrylamide trans isomer] | 41.7% | 77.8% | – | 1.28 mg/kg | 0% | 5.3% | 21.4% | 6.3% | 0% | 0.5% | 0% | 0% | 0% | 0 | – | – | – | – | – | 3.9% | – |
